Results taken from patent publication US11083199B2, “Heterocycle derivatives as pesticides” (Bayer Aktiengesellschaft, priority 2017, dated 2021).

Assays:
Type in all cases: in vivo
[1] = test system: Lucilia cuprina; experiment: Lucilia cuprina test; conditions: 48 h, application rate 100 ppm, L1 larvae, kill after 2 days, read-out: efficacy
Procedure: Solvent: dimethyl sulfoxide To produce a suitable active ingredient formulation, 10 mg of active ingredient are mixed with 0.5 ml of dimethyl sulfoxide, and the concentrate is diluted with water to the desired concentration. About 20 L1 larvae of the Australian sheep blowfly (Lucilia cuprina) are transferred into a test vessel containing minced horsemeat and the active ingredient formulation of the desired concentration. After 2 days, the kill in % is determined. 100% means that all the larvae have been killed; 0% means that no larvae have been killed.

[2] = test system: Myzus persicae; experiment: Myzus persicae oral test; conditions: 120 h, application rate 4 ppm, after 5 days, read-out: efficacy
Procedure: [table] To produce a suitable active ingredient formulation, 1 part by weight of active ingredient is dissolved with the stated parts by weight of solvent and made up to the desired concentration with water. 50 μl of the active ingredient formulation are transferred into microtitre plates and made up to a final volume of 200 μl with 150 μl of IPL41 insect medium (33%+15% sugar). Subsequently, the plates are sealed with parafilm, which a mixed population of green peach aphids (Myzus persicae) within a second microtitre plate is able to puncture and imbibe the solution. After 5 days, the efficacy in % is determined. 100% means that all the aphids have been killed; 0% means that no aphids have been killed.

[3] = test system: Myzus persicae; experiment: Myzus persicae spray test; conditions: foliar, 120 h, application rate 100 g/ha, Chinese cabbage leaf discs, after 5 days, read-out: efficacy
Procedure: (§1) [table] To produce a suitable active ingredient formulation, 1 part by weight of active ingredient is dissolved with the specified parts by weight of solvent and made up to the desired concentration with water containing an emulsifier concentration of 1000 ppm. To produce further test concentrations, the formulation is diluted with emulsifier-containing water. Discs of Chinese cabbage leaves (Brassica pekinensis) infested by all stages of the green peach aphid (Myzus persicae) are sprayed with an active ingredient formulation of the desired concentration. After 5 days, the efficacy in % is determined. 100% means that all the aphids have been killed; 0% means that no aphids have been killed.

[4] = test system: Ctenocephalides felis; experiment: Ctenocephalides felis oral test; conditions: 48 h, application rate 100 ppm in citrated cattle blood, kill after 2 days, read-out: efficacy
Procedure: Solvent: dimethyl sulfoxide To produce a suitable active ingredient formulation, 10 mg of active ingredient are mixed with 0.5 ml of dimethyl sulfoxide. Dilution with citrated cattle blood gives the desired concentration. About 20 unfed adult cat fleas (Ctenocephalides felis) are placed into a chamber which is closed at the top and bottom with gauze. A metal cylinder whose bottom end is closed with parafilm is placed onto the chamber. The cylinder contains the blood/active ingredient formulation, which can be imbibed by the fleas through the parafilm membrane. After 2 days, the kill in % is determined. 100% means that all of the fleas have been killed; 0% means that none of the fleas have been killed.

[5] = test system: Spodoptera frugiperda; experiment: Spodoptera frugiperda spray test; conditions: foliar, 168 h, application rate 100 g/ha, maize leaf discs, caterpillars, after 7 days, read-out: efficacy
Procedure: [table] To produce a suitable active ingredient formulation, 1 part by weight of active ingredient is dissolved with the specified parts by weight of solvent and made up to the desired concentration with water containing an emulsifier concentration of 1000 ppm. To produce further test concentrations, the formulation is diluted with emulsifier-containing water. Leaf discs of maize (Zea mays) are sprayed with an active ingredient formulation of the desired concentration and, after drying, populated with caterpillars of the fall armyworm (Spodoptera frugiperda). After 7 days, the efficacy in % is determined. 100% means that all the caterpillars have been killed; 0% means that no caterpillar has been killed.

[6] = test system: Phaedon cochleariae; experiment: Phaedon cochleariae spray test; conditions: 168 h, application rate 100 g/ha, larvae, after 7 days, read-out: efficacy
Procedure: as §1, with “pekinensis)” for “pekinensis) infested by all stages of the green peach aphid (Myzus persicae)”, “concentration and, after drying, populated with larvae of the mustard beetle (Phaedon cochleariae).” for “concentration.”, “7” for “5”, “beetle larvae” for “aphids”

[7] = test system: Tetranychus urticae; experiment: Tetranychus urticae spray test, OP-resistant; conditions: foliar, 144 h, application rate 100 g/ha, bean leaf discs, after 6 days, read-out: efficacy
Procedure: [table] To produce a suitable active ingredient formulation, 1 part by weight of active ingredient is dissolved with the specified parts by weight of solvent and made up to the desired concentration with water containing an emulsifier concentration of 1000 ppm. To produce further test concentrations, the formulation is diluted with emulsifier-containing water. Discs of bean leaves (Phaseolus vulgaris) infested with all stages of the greenhouse red spider mite (Tetranychus urticae) are sprayed with an active ingredient formulation of the desired concentration. After 6 days, the efficacy in % is determined. 100% means that all the spider mites have been killed; 0% means that no spider mites have been killed.

Row | SMILES | pest or weed control at 100 ppm [1] | pest or weed control at 4 ppm [2] | pest or weed control at 100 g/ha [3] | pest or weed control at 100 ppm [4] | pest or weed control at 100 g/ha [5] | pest or weed control at 100 g/ha [6] | pest or weed control at 100 g/ha [7]
1 | CCn1c(Br)nc(-c2nc3cc(C(F)(F)F)ncc3n2C)c1S(=O)(=O)CC [Example I-001] | 100% | 100% | – | – | – | – | –
2 | C=C(C)c1nc(-c2nc3cc(C(F)(F)F)ncc3n2C)c(S(=O)(=O)CC)n1C [Example I-008] | 100% | 100% | 90% | – | – | – | –
3 | CCS(=O)(=O)c1c(-c2nc3cc(C(F)(F)F)ncc3n2C)nc(-c2ccccc2)n1C(C)C [Example I-012] | 100% | 100% | 90% | – | – | – | –
4 | CCS(=O)(=O)c1c(-c2nc3cc(C(F)(F)F)ncc3n2C)nc(-c2ccncc2)n1C [Example I-021] | 80% | 100% | 100% | – | – | – | –
5 | CCS(=O)(=O)c1c(-c2nc3cc(C(F)(F)F)ncc3n2C)nc(Cl)n1C(C)C [Example I-025] | – | 100% | – | 80% | 100% | – | –
6 | CCS(=O)(=O)c1c(-c2nc3cc(C(F)(F)F)ncc3n2C)nc(-n2cc(Cl)cn2)n1C [Example I-027, 2-[2-(4-chloro-1H-pyrazol-1-yl)-5-(ethylsulfonyl)-1-methyl-1H-imidazol-4-yl]-3-methyl-6-(trifluoromethyl)-3H-imidazo[4,5-c]pyridine] | – | 100% | 90% | – | 100% | 100% | –
7 | CCS(=O)(=O)c1c(-c2nc3cc(C(F)(F)F)ncc3n2C)ncn1C [Example I-029, 2-[5-(Ethylsulfonyl)-1-methyl-1H-imidazol-4-yl]-3-methyl-6-(trifluoromethyl)-3H-imidazo[4,5-c]pyridine] | 95% | 100% | 70% | 95% | – | 100% | –
8 | CCS(=O)(=O)c1c(-c2nc3cc(C(F)(F)F)ncc3n2C)nc(-c2ccnnc2)n1C [Example I-030] | 100% | 100% | 100% | – | – | – | –
9 | CCS(=O)(=O)c1c(-c2nc3cc(C(F)(F)F)ncc3n2C)nc(C(N)=O)n1C [Example I-038, 5-(Ethylsulfonyl)-1-methyl-4-[3-methyl-6-(trifluoromethyl)-3H-imidazo[4,5-c]pyridin-2-yl]-1H-imidazole-2-carboxamide] | – | 100% | 90% | 100% | – | 100% | –
10 | CCS(=O)(=O)c1c(-c2nc3cc(C(F)(F)F)ncc3n2C)nc(C(=O)NC)n1C [Example I-039] | – | 100% | 100% | 100% | – | – | –
11 | CCS(=O)(=O)c1c(-c2nc3cc(C(F)(F)F)ncc3n2C)nc(C(=O)N(C)C)n1C [Example I-040] | 100% | 100% | 100% | 90% | – | – | –
12 | CCS(=O)(=O)c1c(-c2nc3cc(C(F)(F)F)ncc3n2C)nc(-c2ccsc2)n1C [Example I-043] | 100% | 100% | 90% | – | – | – | –
13 | CCS(=O)(=O)c1c(-c2nc3cc(C(F)(F)F)ncc3n2C)nc(C(N)=S)n1C [Example I-046, 5-(Ethylsulfonyl)-1-methyl-4-[3-methyl-6-(trifluoromethyl)-3H-imidazo[4,5-c]pyridin-2-yl]-1H-imidazole-2-carbothioamide] | 95% | 100% | – | – | – | 100% | –
14 | CCS(=O)(=O)c1c(-c2nc3cc(C(F)(F)F)ncc3n2C)nc(-c2c(C)nn(C)c2C)n1C [Example I-050] | – | 90% | 90% | – | – | – | 90%
15 | CCS(=O)(=O)c1c(-c2nc3cc(C(F)(F)F)ncc3n2C)nc(-c2ccc(C#N)n2C)n1C [Example I-054] | – | 90% | – | – | – | – | 100%
16 | CCS(=O)(=O)c1c(-c2nc3cc(C(F)(F)F)ncc3n2C)nc(-c2ccc(Cl)s2)n1C [Example I-057] | – | 100% | 90% | – | 67% | 100% | –
17 | CCS(=O)(=O)c1c(-c2nc3cc(C(F)(F)F)ncc3n2C)nc(-c2ccn(C)n2)n1C [Example I-060] | – | 100% | 100% | – | 83% | 100% | –
18 | CCS(=O)(=O)c1c(-c2nc3cc(C(F)(F)F)nnc3n2C)nc(-c2ccc(Cl)cc2)n1C [Example I-063] | – | 100% | 100% | – | 100% | 100% | –
19 | CCS(=O)(=O)c1c(-c2nc3cc(C(F)(F)F)ncc3n2C)nc(-c2ccc(C3(C#N)CC3)cc2)n1C [Example I-069] | – | 100% | 90% | – | 100% | 100% | –
20 | CCS(=O)(=O)c1c(-c2nc3cc(C(F)(F)F)ncc3n2C)nc(C2=CCC(C)CC2)n1C (stereo not shown) [Example I-074] | – | – | 90% | – | – | – | 90%
21 | CCS(=O)(=O)c1c(-c2nc3cc(C(F)(F)F)ncc3n2C)nc(-c2cccc(C(C)(C)C#N)c2)n1C [Example I-075] | – | 100% | 90% | – | – | – | 90%
22 | CCS(=O)(=O)c1c(-c2nc3cc(C(F)(F)F)ncc3n2C)nc(C(C)C)n1C [Example I-086] | – | 100% | 90% | – | – | – | 90%
23 | CCS(=O)(=O)c1c(-n2cc3ncc(C(F)(F)F)cc3n2)nc(-c2ccccc2)n1C [Example I-096] | – | 90% | 90% | – | 83% | 100% | –
24 | CCS(=O)(=O)c1c(-n2cc3cnc(C(F)(F)F)cc3n2)nc(-c2ccc(C(F)(F)F)cc2)n1C [Example I-097] | – | 100% | – | – | 100% | 100% | –
25 | CCS(=O)(=O)c1c(-n2cc3ncc(C(F)(F)F)cc3n2)nc(-c2ccc(C(F)(F)F)cc2)n1C [Example I-098, 2-{5-(Ethylsulfonyl)-1-methyl-2-[4-(trifluoromethyl)phenyl]-1H-imidazol-4-yl}-6-(trifluoromethyl)-2H-pyrazolo[4,3-b]pyridine] | – | 100% | – | – | 100% | 100% | –
